Laboratory results from PMC11124822, “Discovery and Anticancer Screening of Novel Oxindole-Based Derivative Bearing Pyridyl Group as Potent and Selective Dual FLT3/CDK2 Kinase Inhibitor” (Pharmaceuticals, 2024).

Key:
CCRF-CEM = test: NCI-60 antiproliferative screen (SRB); assay type: cell-based, human; conditions: Homo sapiens; 10 µM single dose, 48 h; CCRF-CEM (Leukemia); read-out: Growth inhibition (%)
EKVX = test: NCI-60 antiproliferative screen (SRB); assay type: cell-based, human; conditions: Homo sapiens; 10 µM single dose, 48 h; EKVX (NSCLC); read-out: Growth inhibition (%)
NCI-H226 = test: NCI-60 antiproliferative screen (SRB); assay type: cell-based, human; conditions: Homo sapiens; 10 µM single dose, 48 h; NCI-H226 (NSCLC); read-out: Growth inhibition (%)
NCI-H23 = test: NCI-60 antiproliferative screen (SRB); assay type: cell-based, human; conditions: Homo sapiens; 10 µM single dose, 48 h; NCI-H23 (NSCLC); read-out: Growth inhibition (%)
NCI-H460 = test: NCI-60 antiproliferative screen (SRB); assay type: cell-based, human; conditions: Homo sapiens; 10 µM single dose, 48 h; NCI-H460 (NSCLC); read-out: Growth inhibition (%)
NCI-H522 = test: NCI-60 antiproliferative screen (SRB); assay type: cell-based, human; conditions: Homo sapiens; 10 µM single dose, 48 h; NCI-H522 (NSCLC); read-out: Growth inhibition (%)
HCT-15 = test: NCI-60 antiproliferative screen (SRB); assay type: cell-based, human; conditions: Homo sapiens; 10 µM single dose, 48 h; HCT-15 (Colon); read-out: Growth inhibition (%)
SF-295 = test: NCI-60 antiproliferative screen (SRB); assay type: cell-based, human; conditions: Homo sapiens; 10 µM single dose, 48 h; SF-295 (CNS); read-out: Growth inhibition (%)
SF-539 = test: NCI-60 antiproliferative screen (SRB); assay type: cell-based, human; conditions: Homo sapiens; 10 µM single dose, 48 h; SF-539 (CNS); read-out: Growth inhibition (%)
LOX IMVI = test: NCI-60 antiproliferative screen (SRB); assay type: cell-based, human; conditions: Homo sapiens; 10 µM single dose, 48 h; LOX IMVI (Melanoma); read-out: Growth inhibition (%)
M14 = test: NCI-60 antiproliferative screen (SRB); assay type: cell-based, human; conditions: Homo sapiens; 10 µM single dose, 48 h; M14 (Melanoma); read-out: Growth inhibition (%)
MDA-MB-435 = test: NCI-60 antiproliferative screen (SRB); assay type: cell-based, human; conditions: Homo sapiens; 10 µM single dose, 48 h; MDA-MB-435 (Melanoma); read-out: Growth inhibition (%)
SK-MEL-28 = test: NCI-60 antiproliferative screen (SRB); assay type: cell-based, human; conditions: Homo sapiens; 10 µM single dose, 48 h; SK-MEL-28 (Melanoma); read-out: Growth inhibition (%)
UACC-257 = test: NCI-60 antiproliferative screen (SRB); assay type: cell-based, human; conditions: Homo sapiens; 10 µM single dose, 48 h; UACC-257 (Melanoma); read-out: Growth inhibition (%)
UACC-62 = test: NCI-60 antiproliferative screen (SRB); assay type: cell-based, human; conditions: Homo sapiens; 10 µM single dose, 48 h; UACC-62 (Melanoma); read-out: Growth inhibition (%)
OVCAR-5 = test: NCI-60 antiproliferative screen (SRB); assay type: cell-based, human; conditions: Homo sapiens; 10 µM single dose, 48 h; OVCAR-5 (Ovarian); read-out: Growth inhibition (%)
OVCAR-8 = test: NCI-60 antiproliferative screen (SRB); assay type: cell-based, human; conditions: Homo sapiens; 10 µM single dose, 48 h; OVCAR-8 (Ovarian); read-out: Growth inhibition (%)
NCI/ADR-RES = test: NCI-60 antiproliferative screen (SRB); assay type: cell-based, human; conditions: Homo sapiens; 10 µM single dose, 48 h; NCI/ADR-RES (Ovarian); read-out: Growth inhibition (%)
SK-OV-3 = test: NCI-60 antiproliferative screen (SRB); assay type: cell-based, human; conditions: Homo sapiens; 10 µM single dose, 48 h; SK-OV-3 (Ovarian); read-out: Growth inhibition (%)
786-0 = test: NCI-60 antiproliferative screen (SRB); assay type: cell-based, human; conditions: Homo sapiens; 10 µM single dose, 48 h; 786-0 (Renal); read-out: Growth inhibition (%)
ACHN = test: NCI-60 antiproliferative screen (SRB); assay type: cell-based, human; conditions: Homo sapiens; 10 µM single dose, 48 h; ACHN (Renal); read-out: Growth inhibition (%)
CAKI-1 = test: NCI-60 antiproliferative screen (SRB); assay type: cell-based, human; conditions: Homo sapiens; 10 µM single dose, 48 h; CAKI-1 (Renal); read-out: Growth inhibition (%)
SN12C = test: NCI-60 antiproliferative screen (SRB); assay type: cell-based, human; conditions: Homo sapiens; 10 µM single dose, 48 h; SN12C (Renal); read-out: Growth inhibition (%)
DU-145 = test: NCI-60 antiproliferative screen (SRB); assay type: cell-based, human; conditions: Homo sapiens; 10 µM single dose, 48 h; DU-145 (Prostate); read-out: Growth inhibition (%)
HS 578T = test: NCI-60 antiproliferative screen (SRB); assay type: cell-based, human; conditions: Homo sapiens; 10 µM single dose, 48 h; HS 578T (Breast); read-out: Growth inhibition (%)
BT-549 = test: NCI-60 antiproliferative screen (SRB); assay type: cell-based, human; conditions: Homo sapiens; 10 µM single dose, 48 h; BT-549 (Breast); read-out: Growth inhibition (%)
[1] = tested on: NCI-60 human cancer cell lines; test: NCI-60 screen, full panel summary; assay type: cell-based; conditions: 10 µM single dose
Procedure: In a comprehensive test, compounds were assayed at a single dose concentration (10^−5 M) in the full panel of NCI-60 cancer cell lines.

OVCAR-4 = test: NCI-60 antiproliferative screen (SRB); conditions: Homo sapiens, OVCAR-4, 48 h, read-out: Growth inhibition (%)

O=C1Nc2ccccc2C1=Cc1ccc(OCc2cccnc2)cc1 (mixture of isomers) [Compound 5i, (E/Z)-3-[4-(Pyridin-3-ylmethoxy)benzylidene]indolin-2-one]
inhibition at 10 µM (CCRF-CEM): 52.4% | inhibition at 10 µM (EKVX): 31.7% | inhibition at 10 µM (NCI-H226): 38.2% | inhibition at 10 µM (NCI-H23): 42.4% | inhibition at 10 µM (NCI-H460): 21.7% | inhibition at 10 µM (NCI-H522): 49.9% | inhibition at 10 µM (HCT-15): 60.5% | inhibition at 10 µM (SF-295): 31.2% | inhibition at 10 µM (SF-539): 36.2% | inhibition at 10 µM (LOX IMVI): 55% | inhibition at 10 µM (M14): 37.6% | inhibition at 10 µM (MDA-MB-435): 60.9% | inhibition at 10 µM (SK-MEL-28): -2.65% | inhibition at 10 µM (UACC-257): 30.5% | inhibition at 10 µM (UACC-62): 43.5% | inhibition at 10 µM (OVCAR-5): -27.6% | inhibition at 10 µM (OVCAR-8): 47.2% | inhibition at 10 µM (NCI/ADR-RES): 55% | inhibition at 10 µM (SK-OV-3): 13.2% | inhibition at 10 µM (786-0): 17.2% | inhibition at 10 µM (ACHN): 37.5% | inhibition at 10 µM (CAKI-1): 56.7% | inhibition at 10 µM (SN12C): 27.1% | inhibition at 10 µM (DU-145): 39.8% | inhibition at 10 µM (HS 578T): 17.6% | inhibition at 10 µM (BT-549): 53.2% | Positive Cytostatic Effect (cell lines with percent growth from 0 to 50 / total number of cell lines) [1]: 17/56 | Positive Cytotoxic Effect (cell lines with percent growth of <0 / total number of cell lines) [1]: 0/56 | Sensitive/Total Cell Lines [1]: 17/56 | The Most Sensitive Cell Line [1]: KM12 | Mean Growth Percent ([1]; all NCI-60 cell lines): 34.95 | inhibition at 10 µM (OVCAR-4): 37.8%
